Several values for one entry are separate records, joined by “and”; a condition that tells them apart may be missing. Equal entries are not always repeated. Where two headings read alike, the source gives them in different places.
Tests used:
B. malayi AVR-14B GluCl = biological target: T1, B. malayi AVR-14B GluCl (Brugia malayi, UniProt A0A0K0J2Q9); assay: Two-electrode voltage-clamp on Xenopus laevis oocytes expressing Bma-AVR-14B; conditions: for direct activation as agonist (in words): 0.3 to 100 µM; for agonist activity (in words): tested at 1 mM; for L-glutamate-mediated current response (mean ± SEM) / activation at 1000 µM / activation at 10000 µM: normalized to 10 mM L-glutamate
T1 sequence (A0A0K0J2Q9 19-427): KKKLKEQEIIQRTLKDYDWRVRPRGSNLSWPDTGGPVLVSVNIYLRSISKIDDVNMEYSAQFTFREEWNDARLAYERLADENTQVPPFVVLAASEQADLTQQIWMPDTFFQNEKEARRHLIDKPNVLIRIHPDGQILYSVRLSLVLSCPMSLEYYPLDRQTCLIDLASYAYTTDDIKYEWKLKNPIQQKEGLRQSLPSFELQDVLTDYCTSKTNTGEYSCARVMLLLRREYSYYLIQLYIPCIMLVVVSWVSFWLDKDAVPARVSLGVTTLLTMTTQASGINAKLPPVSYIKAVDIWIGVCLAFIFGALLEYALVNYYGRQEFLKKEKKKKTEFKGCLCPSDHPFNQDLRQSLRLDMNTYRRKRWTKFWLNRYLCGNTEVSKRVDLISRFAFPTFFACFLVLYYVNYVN

B. malayi = conditions: cited from earlier work; for gradual recovery from the paralytic effects: treated worms
adult B. malayi worms = assay: Adult B. malayi worm motility; format: cell-based, Brugia malayi; conditions: for pIC50, inhibition of motility / IC50: 24 h exposure; for IC50: read-out: IC50, inhibition of motility; for recovery from the motility paralysis: treated adult worms
[1] = tested on: H. contortus AVR-14B/GluClα3B; conditions: SI table ref 3, cited from earlier work
[2] = tested on: C. oncophora IVR AVR-14/GluClα3; conditions: IVM-resistant strain; SI table ref 5; cited from earlier work
[3] = tested on: C. oncophora IVS AVR-14/GluClα3; conditions: IVM-sensitive strain; SI table ref 5; cited from earlier work
[4] = tested on: C. elegans AVR-14B/GluClα3B; conditions: cited from earlier work
[5] = tested on: D. immitis AVR-14B/GluClα3B; conditions: cited from earlier work
[6] = coapplied with 30 mM L-glutamate
[7] = read-out: IC50(female), motility, female B. malayi
[8] = peak current normalized to 30 mM L-glutamate

N#Cc1nn(-c2c(Cl)cc(C(F)(F)F)cc2Cl)c(N)c1[S+]([O-])C(F)(F)F (stereo not shown) [FIP, fipronil]
direct activation as agonist (in words) (B. malayi AVR-14B GluCl): failed to produce direct activation
IC50 (B. malayi AVR-14B GluCl; IC50, inhibition of L-glutamate-gated current, coapplied with 30 mM L-glutamate): 1800 nM
nH, inhibition of L-glutamate-gated current (B. malayi AVR-14B GluCl; [6]): −1.3 ± 0.4
IC50 (B. malayi AVR-14B GluCl; pIC50, inhibition of L-glutamate-gated current, coapplied with 30 mM L-glutamate): 2000 nM
inhibition at 100 µM (B. malayi AVR-14B GluCl; read-out: inhibition of the glutamate response): ~95%

Cc1onc(O)c1CC(N)C(=O)O (stereo not drawn) [AMPA, α-amino-3-hydroxy-5-methyl-4-isoxazolepropionic acid]
agonist activity (in words) (B. malayi AVR-14B GluCl): failed to induce any measurable channel activity

NCCCC(=O)O [GABA, γ-amino butyric acid]
agonist activity (in words) (B. malayi AVR-14B GluCl): inactive

N[C@@H](Cn1oc(=O)[nH]c1=O)C(=O)O [quisqualate]
agonist activity (in words) (B. malayi AVR-14B GluCl): failed to induce any measurable channel activity

c1ccc([C@H]2CN3CCSC3=N2)cc1 [levamisole]
IC50 (B. malayi; [7]): 10 nM
gradual recovery from the paralytic effects (B. malayi): 3 to 4 h

CC[C@H](C)[C@H]1O[C@]2(CC[C@@H]1C)C[C@@H]1C[C@@H](C/C=C(\C)[C@@H](O[C@H]3C[C@H](OC)[C@@H](O[C@H]4C[C@H](OC)[C@@H](O)[C@H](C)O4)[C@H](C)O3)[C@@H](C)/C=C/C=C3\CO[C@@H]4[C@H](O)C(C)=C[C@@H](C(=O)O1)[C@]34O)O2 [IVM, ivermectin]
pIC50, inhibition of motility (adult B. malayi worms; adult female worms): 5.9 ± 0.4
pIC50, inhibition of motility (adult B. malayi worms; adult male worms): 4.9 ± 0.2
IC50 (adult B. malayi worms; adult female worms): 1.1 µM
IC50 (adult B. malayi worms; adult male worms): 11.6 µM
recovery from the motility paralysis (adult B. malayi worms): do not show any sign of recovery
EC50 ([1]; read-out: estimated EC50): ~0.0001 µM
EC50 [2]: 1.3 µM
direct activation of receptor (in words) (B. malayi AVR-14B GluCl; 1 pM IVM): did not activate the Bma-AVR-14B receptor directly
effect on NA-mediated effects (in words) (B. malayi AVR-14B GluCl; 0.1 nM IVM, NA with 30 µM L-glutamate): eliminated the agonist as well as PAM effects of NA
L-glutamate-mediated current response (mean ± SEM) (B. malayi AVR-14B GluCl; 100 µM L-glutamate in the presence of 0.1 nM IVM): 1.3 ± 0.3%
L-glutamate-mediated current response (mean ± SEM) (B. malayi AVR-14B GluCl; 1 mM L-glutamate in the presence of 0.01 nM IVM): 34.2 ± 7.5%
L-glutamate-mediated current response (mean ± SEM) (B. malayi AVR-14B GluCl; 1 mM L-glutamate in the presence of 0.1 nM IVM): 4.0 ± 0.6%
L-glutamate-mediated current response (mean ± SEM) (B. malayi AVR-14B GluCl; 10 mM L-glutamate in the presence of 0.01 nM IVM): 70.3 ± 7.9%
L-glutamate-mediated current response (mean ± SEM) (B. malayi AVR-14B GluCl; 10 mM L-glutamate in the presence of 0.1 nM IVM): 7.7 ± 0.7%
nH (Hill coefficient), direct activation (B. malayi AVR-14B GluCl; [8]): 0.3 ± 0.1 and 0.3 ± 0.2
pEC50, direct activation (B. malayi AVR-14B GluCl; [8]): 8.7 ± 1.2
EC50 [3]: 0.5 µM

N[C@@H](CC(=O)O)C(=O)O [L-aspartate]
agonist activity (in words) (B. malayi AVR-14B GluCl): failed to induce any measurable channel activity

C/C(=C\C=C\[C@]1(C)[C@@H](O)CC[C@@]2(C)[C@H]1CC[C@H]1Cc3c([nH]c4cc5c(cc34)C3=CC(C)(C)OC(C)(C)[C@H]3C5)[C@@]12C)C(=O)O [NA, Nodulisporic acid]
exposure required to produce a reduction in worm motility similar to IVM (adult B. malayi worms; adult worms): > 3 days
recovery from the motility paralysis (adult B. malayi worms): do not show any sign of recovery
EC50 (B. malayi AVR-14B GluCl; EC50, direct activation (agonist), normalized to 30 mM L-glutamate): 2700 nM
nH, potentiation (PAM) of L-glutamate response (B. malayi AVR-14B GluCl; in the presence of 30 µM L-glutamate): 0.8 ± 0.4
increase in the mean AUC response of L-glutamate (B. malayi AVR-14B GluCl; in the presence of NA): approximately sevenfold increase
EC50 (B. malayi AVR-14B GluCl; pEC50, direct activation, peak current normalized to 30 mM L-glutamate): 2510 nM
nH (Hill coefficient), direct activation (B. malayi AVR-14B GluCl; [8]): 1.6 ± 0.8

picrotoxin [PTX]
inhibition of the glutamate response (B. malayi AVR-14B GluCl; 100 µM, 30 mM L-glutamate): failed to completely block
direct activation as agonist (in words) (B. malayi AVR-14B GluCl): failed to produce direct activation
nH, inhibition of L-glutamate-gated current (B. malayi AVR-14B GluCl; [6]): −1.2 ± 0.6
pIC50, inhibition of L-glutamate-gated current (B. malayi AVR-14B GluCl; [6]): 4.5 ± 0.2
IC50 (B. malayi AVR-14B GluCl; read-out: IC50, inhibition of L-glutamate-gated current, coapplied with 30 mM L-glutamate): 33100 nM

CN[C@H](CC(=O)O)C(=O)O [NMDA, N-methyl-D-aspartic acid]
agonist activity (in words) (B. malayi AVR-14B GluCl): failed to induce any measurable channel activity

C=C(C)[C@H]1CN[C@H](C(=O)O)[C@H]1CC(=O)O [kainate]
agonist activity (in words) (B. malayi AVR-14B GluCl): failed to induce any measurable channel activity

CCN(CC)C(=O)N1CCN(C)CC1 [DEC, diethylcarbamazine]
IC50 (B. malayi; read-out: IC50, motility, B. malayi): 4400 nM
gradual recovery from the paralytic effects (B. malayi): 3 to 4 h

CC(C)C[C@H]1C(=O)O[C@H](Cc2ccc(N3CCOCC3)cc2)C(=O)N(C)[C@@H](CC(C)C)C(=O)O[C@H](C)C(=O)N(C)[C@@H](CC(C)C)C(=O)O[C@H](Cc2ccc(N3CCOCC3)cc2)C(=O)N(C)[C@@H](CC(C)C)C(=O)O[C@H](C)C(=O)N1C [emodepside]
IC50 (B. malayi; [7]): 801 nM
IC50 (B. malayi; read-out: IC50(male), motility, male B. malayi): 176 nM

N[C@H](C(=O)O)c1cc(O)no1 [ibotenate]
normalized current response to agonist (mean ± SEM) (B. malayi AVR-14B GluCl; agonist 1 mM, normalized to 1 mM L-glutamate response): 73.4 ± 2.5%

NCC(=O)O [Glycine, glycine]
agonist activity (in words) (B. malayi AVR-14B GluCl): inactive

N[C@@H](CCC(=O)O)C(=O)O [L-glutamate]
EC50 [1]: 27.6 µM
EC50 [2]: 96.1 µM
time constant of desensitization (τ) (B. malayi AVR-14B GluCl; 3 µM L-glutamate): 1.3 ± 0.3 s
reversal potential (Erev) of glutamate-gated currents (B. malayi AVR-14B GluCl; 1 mM L-glutamate, −80 to +20 mV): −28.9 ± 2.9 mV
time constant of desensitization (τ) (B. malayi AVR-14B GluCl; 30 mM L-glutamate): 0.6 ± 0.1 s
nH (Hill coefficient), direct activation (B. malayi AVR-14B GluCl; [8]): 0.8 ± 0.3
activation at 1000 µM (B. malayi AVR-14B GluCl; read-out: L-glutamate-mediated current response (mean ± SEM), 1 mM L-glutamate alone, 0.01 nM IVM experiment): 54.3 ± 9.2%
activation at 1000 µM (B. malayi AVR-14B GluCl; read-out: L-glutamate-mediated current response (mean ± SEM), 1 mM L-glutamate alone, 0.1 nM IVM experiment): 52.8 ± 3.3%
activation at 10000 µM (B. malayi AVR-14B GluCl; read-out: L-glutamate-mediated current response (mean ± SEM), 10 mM L-glutamate alone, 0.01 nM IVM experiment): 100%
activation at 10000 µM (B. malayi AVR-14B GluCl; read-out: L-glutamate-mediated current response (mean ± SEM), 10 mM L-glutamate alone, 0.1 nM IVM experiment): 100%
EC50 [4]: 2.2 mM
EC50 [5]: ~1 mM
EC50 [3]: 29.7 µM

— publication PMC9407656 (Proceedings of the National Academy of Sciences of the …, 2022)
